The test system of experiment [1] is lung adenocarcinoma cell line HCC4006. In words: HCC4006 cell growth inhibition test (Test Example 2). In kind it is cell-based. Conditions: Homo sapiens, 120 h; 1 μM test compound; HCC4006 cells, culture for 5 days, CellTiter-Glo; read-out: Rate of inhibition (%) at 1 μM. In outline:
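HCC4006 cells in RPMI-1640 with 10% FBS were seeded at 250 cells/well and dosed with compound the next day. After 5 days, viability was read by CellTiter-Glo luminescence. Percent inhibition was calculated against no-compound control and cell-free blank.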

For experiment [2], the system named is human leukemia cell line PL-21 cancer-bearing mice. Briefly: Antitumor test using PL-21 cell (Test Example 3). In kind it is in vivo, mouse. As for the experimental part: The compound of the present invention was evaluated for its antitumor effect on human leukemia cell line PL-21 cancer-bearing mice by the following method.
The human leukemia cell line PL-21 (JCRB) was transplanted to each 6-week-old Icr-scid female mouse (CLEA Japan Inc.) by the subcutaneous injection of 3.0×10^6 cells. The tumor size of successfully engrafted tumor was measured 13 days after the transplantation. The tumor volume was calculated according to the following expression: Tumor volume=Major axis×Minor axis×Minor axis×(½)
Individuals in which the volume of the engrafted tumor reached 100 to 150 mm^3 were selected and used in the experiment as groups each involving 5 or 6 individuals. A 0.5% methylcellulose suspension of each test compound was orally administered to each mouse using the dose (indicated by single dose), the number of doses and the dosing period shown in Table 5. The tumor sizes at the day before the start of the administration and one day after the completion of the administration were measured and the tumor volume was calculated.
The rate of tumor growth (T/C (%)) in the test compound administration group compared with a control administration group was calculated according to the following expression: T/C (%)=(Tumor volume after the completion of the administration of the test compound administration group−Tumor volume before the start of the administration of the test compound administration group)/(Tumor volume after the completion of the administration of the control administration group−Tumor volume before the start of the administration of the control administration group)×100

Experiment [3] has as its target T1, SPT (SPT2-expressing membrane fraction: human SPT1, human SPT2 and human ssSPTa) (Homo sapiens, UniProt O15269+O15270).
T1 construct: Full-length human SPT1, human SPT2 and human ssSPTa used; made in house; host or cells: FreeStyle 293 cells (pcDNA3.1 vectors, cotransfection); crude membrane fraction used
T1 sequence (O15269 1-473): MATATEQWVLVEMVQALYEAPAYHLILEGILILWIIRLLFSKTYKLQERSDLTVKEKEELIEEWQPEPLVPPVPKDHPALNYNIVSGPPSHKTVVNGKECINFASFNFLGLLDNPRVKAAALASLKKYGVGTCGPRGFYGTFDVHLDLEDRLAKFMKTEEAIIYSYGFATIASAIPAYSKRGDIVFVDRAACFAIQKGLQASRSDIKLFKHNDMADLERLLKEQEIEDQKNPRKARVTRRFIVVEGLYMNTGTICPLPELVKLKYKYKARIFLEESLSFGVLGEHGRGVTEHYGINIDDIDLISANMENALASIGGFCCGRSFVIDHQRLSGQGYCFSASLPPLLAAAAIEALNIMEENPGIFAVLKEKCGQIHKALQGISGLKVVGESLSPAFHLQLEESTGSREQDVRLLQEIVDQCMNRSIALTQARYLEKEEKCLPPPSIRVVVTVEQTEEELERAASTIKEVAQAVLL
T1 sequence (O15270 1-562): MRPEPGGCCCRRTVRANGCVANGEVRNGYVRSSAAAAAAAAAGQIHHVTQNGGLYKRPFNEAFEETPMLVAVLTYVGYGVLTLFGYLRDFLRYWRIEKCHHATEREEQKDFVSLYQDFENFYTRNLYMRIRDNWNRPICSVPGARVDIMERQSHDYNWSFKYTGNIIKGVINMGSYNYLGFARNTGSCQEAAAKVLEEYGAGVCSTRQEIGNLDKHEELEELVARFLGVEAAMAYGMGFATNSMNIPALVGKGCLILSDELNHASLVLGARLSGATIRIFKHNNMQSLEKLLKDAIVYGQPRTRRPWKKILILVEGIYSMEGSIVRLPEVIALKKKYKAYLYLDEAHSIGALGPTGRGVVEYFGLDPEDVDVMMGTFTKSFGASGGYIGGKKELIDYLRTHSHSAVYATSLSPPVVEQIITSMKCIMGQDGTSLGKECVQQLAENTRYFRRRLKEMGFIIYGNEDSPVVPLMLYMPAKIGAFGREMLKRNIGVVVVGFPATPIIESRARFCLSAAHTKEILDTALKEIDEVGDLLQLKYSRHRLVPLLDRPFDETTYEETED
T1 sequence (Q969W0 1-71 partner): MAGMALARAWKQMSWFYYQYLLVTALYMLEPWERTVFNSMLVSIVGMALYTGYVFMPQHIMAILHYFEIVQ
Briefly: SPT enzyme inhibition test (Test Example 1). The class given is biochemical. As to conditions: read-out: Rate of inhibition (%) at 1 μM. In outline: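 Membrane fraction (100 μg/mL stock) of cells expressing human SPT1, SPT2 and ssSPTa was preincubated 60 min at RT with compound in 100 mM Hepes pH 8.0 containing EDTA, DTT and 0.01% BSA. Reaction ran 15 min at RT with 2 mM L-serine and 20 μM palmitoyl CoA (solution concentrations), then formic acid quench. Product measured by RapidFire mass spectrometry against a C17-sphinganine internal standard, giving % inhibition.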

Setting [4] is: 10 mg/kg orally, administered once every two days, 14 days.
Where [5] appears, read: 30 mg/kg orally, administered once every two days, 14 days.

Molecules are shown by their SMILES.

By inhibition is commonly meant the drop in the measured response relative to a control, in per cent. For `Cn1nc(C(F)(F)F)cc1C(=O)N[C@@H]1CCN(C(=O)c2cc(Cl)c3nccnc3c2)C[C@@H]1c1ccccc1` [Example 81B, N-((3S,4R)-1-((8-Chloroquinoxalin-6-yl)carbonyl)-3-phenylpiperidin-4-yl)-1-methyl-3-(trifluoromethyl)-1H-pyrazole-5-carboxamide], the inhibition at 1 µM in experiment [1] was determined as 54%. The “T/C (%)” value in experiment [2] (10 mg/kg orally, administered every day for 3 days, 4-day drug holiday, 2 cycles) came out at 16%; in experiment [2] (setting [4]), 63%; in experiment [2] (setting [5]), 32%.
Take `COc1cc(C(=O)N2CC[C@H](NC(=O)c3ccccc3OC(F)(F)F)c3c2cnn3C(C)C)cnc1OC` [Example 162A, N-((7S)-4-((5,6-Dimethoxypyridin-3-yl)carbonyl)-1-isopropyl-4,5,6,7-tetrahydro-1H-pyrazolo[4,3-b]pyridin-7-yl)-2-(trifluoromethoxy)benzamide]: the inhibition at 1 µM in experiment [1] worked out at 56%. Further, the “T/C (%)” value in experiment [2] (setting [4]) worked out at 52%; in experiment [2] (setting [5]), 38%.
Take `COc1cc(C(=O)N2CC[C@@H](NC(=O)c3cc(C4CC4)nn3C)[C@@H](c3ccccc3)C2)cc2nccnc12` [Example 330B, 3-cyclopropyl-N-((3S,4R)-1-((8-methoxyquinoxalin-6-yl)carbonyl)-3-phenylpiperidin-4-yl)-1-methyl-1H-pyrazole-5-carboxamide]: the inhibition at 1 µM in experiment [3] came out at 102%; in experiment [1] it was 49%.
The like results for `Cc1nn(C)c(Cl)c1C(=O)N[C@@H]1CCN(C(=O)c2cc(Cl)c3ncc(C)n3c2)C[C@@H]1c1ccccc1` [Example 342B, 5-chloro-N-((3S,4R)-1-((8-chloro-3-methylimidazo[1,2-a]pyridin-6-yl)carbonyl)-3-phenylpiperidin-4-yl)-1,3-dimethyl-1H-pyrazole-4-carboxamide] were, in that order, 101% and 51%.
`Cc1nn(C)c(Cl)c1C(=O)N[C@@H]1CCN(C(=O)c2cc(C)c3ncc(C)n3c2)C[C@@H]1c1ccccc1` [Example 344B, 5-chloro-N-((3S,4R)-1-((3,8-dimethylimidazo[1,2-a]pyridin-6-yl)carbonyl)-3-phenylpiperidin-4-yl)-1,3-dimethyl-1H-pyrazole-4-carboxamide]: the inhibition at 1 µM stood at 103% in experiment [3] and 51% in experiment [1].
Turning to `COc1cc(C(=O)N2CC[C@@H](NC(=O)c3c(C)nn(C)c3Cl)[C@@H](c3ccccc3)C2)cc2nccnc12` [Example 345B, 5-chloro-N-((3S,4R)-1-((8-methoxyquinoxalin-6-yl)carbonyl)-3-phenylpiperidin-4-yl)-1,3-dimethyl-1H-pyrazole-4-carboxamide], the inhibition at 1 µM in experiment [3] worked out at 102%; in experiment [1], 48%.
On to `COc1cc(C(=O)N2CC[C@@H](NC(=O)c3cc(C(F)(F)F)nn3C)[C@@H](c3ccc(F)cc3)C2)cc2nccnc12` [Example 352B, N-((3S,4R)-3-(4-fluorophenyl)-1-((8-methoxyquinoxalin-6-yl)carbonyl)piperidin-4-yl)-1-methyl-3-(trifluoromethyl)-1H-pyrazole-5-carboxamide], for which the inhibition at 1 µM in experiment [3] stood at 102%; in experiment [1] it was 50%.
In the case of `COc1cc(C(=O)N2CC[C@@H](NC(=O)c3ccccc3OC(F)F)[C@H](c3ccc(F)cc3)C2)cnc1OC` [Example 361B, 2-(difluoromethoxy)-N-((3R,4R)-1-((5,6-dimethoxypyridin-3-yl)carbonyl)-3-(4-fluorophenyl)piperidin-4-yl)benzamide], the inhibition at 1 µM in experiment [3] turned out to be 102%; in experiment [1] it was 45%.
The like results for `COc1cc(C(=O)N2CC[C@@H](NC(=O)c3cc(C(F)(F)F)nn3C)[C@@H](c3ccccc3)C2)cc2nccnc12` [Example 412B, N-((3S,4R)-1-((8-Methoxyquinoxalin-6-yl)carbonyl)-3-phenylpiperidin-4-yl)-1-methyl-3-(trifluoromethyl)-1H-pyrazole-5-carboxamide] were, in that order, 102% and 47%.

The values above are taken from US10189785B2, “Heterocyclic compound” (TAKEDA PHARMACEUTICAL COMPANY LIMITED, priority 2015, dated 2019).
